Test results reported in patent US20190071416A1, “COMPOUNDS FOR TREATMENT OF CANCER AND EPIGENETICS” (Agency For Science, Technology and Research, priority 2015, published 2019).

Target: T1, SMYD3 (Homo sapiens, UniProt Q9H7B4)
T1 sequence (Q9H7B4 1-428): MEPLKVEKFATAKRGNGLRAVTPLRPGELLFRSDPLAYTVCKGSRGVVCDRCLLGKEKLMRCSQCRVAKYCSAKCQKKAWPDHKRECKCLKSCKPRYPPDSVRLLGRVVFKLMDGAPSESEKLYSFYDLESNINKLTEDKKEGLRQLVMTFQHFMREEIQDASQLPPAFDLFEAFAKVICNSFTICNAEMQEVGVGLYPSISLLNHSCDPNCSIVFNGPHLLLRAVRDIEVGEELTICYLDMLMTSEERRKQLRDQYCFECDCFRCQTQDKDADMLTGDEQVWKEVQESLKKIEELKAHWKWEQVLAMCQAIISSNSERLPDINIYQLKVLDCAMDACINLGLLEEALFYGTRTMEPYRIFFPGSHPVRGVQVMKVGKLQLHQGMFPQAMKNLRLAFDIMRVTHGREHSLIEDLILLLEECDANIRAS
Assay: SMYD3 biochemical assay (MTase-Glo, MAP3K2 peptide substrate)
Details: Table 3; MTase assay, MAP3K2 peptide substrate; read-out: IC50
Method in brief: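 Luminescent readout of SAH production (coupled SAH→ATP conversion, MTase-Glo) after SMYD3 reacted 30 min at room temperature with 1.0 µM SAM and 10 µM MAP3K2 peptide, both final. Non-linear regression gave IC50 values.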

Row | IC50 [nM] | Structure (SMILES)
1 | 280 | CCCOC(=O)N1CCN(C(=O)c2ccc3c(Cl)c(C)c(-c4ccc(OC)cc4)nc3c2)CC1 [B031, Propyl 4-(4-chloro-2-(4-methoxyphenyl)-3-methylquinoline-7-carbonyl)piperazine-1-carboxylate]
2 | 5500 | CCCOC(=O)N1CCN(C(=O)c2ccc3c(Cl)c(C)c(-c4cccc(C#N)c4)nc3c2)CC1 [B032, Propyl 4-(4-chloro-2-(3-cyanophenyl)-3-methylquinoline-7-carbonyl)piperazine-1-carboxylate]
3 | 210 | CCCOC(=O)N1CCN(C(=O)c2ccc3c(Cl)cc(-c4cccc(C(N)=O)c4)nc3c2)CC1 [B033, Propyl 4-(2-(3-carbamoylphenyl)-4-chloroquinoline-7-carbonyl)piperazine-1-carboxylate]
4 | 120 | CCCOC(=O)N1CCN(C(=O)c2ccc3c(Cl)c(C)c(-c4ccc(OC)cc4)nc3c2)C[C@@H]1C [B034, Propyl (S)-4-(4-chloro-2-(4-methoxyphenyl)-3-methylquinoline-7-carbonyl)-2-methylpiperazine-1-carboxylate]
5 | 1000 | CCCOC(=O)N1CCN(C(=O)c2ccc3c(Cl)c(C)c(-c4cccc(C(N)=O)c4)nc3c2)CC1 [B035, Propyl 4-(2-(3-carbamoylphenyl)-4-chloro-3-methylquinoline-7-carbonyl)piperazine-1-carboxylate]
6 | 150 | CCCOC(=O)N1CCN(C(=O)c2ccc3c(Cl)c(C)c(-c4ccc(OC)cc4)nc3c2)C[C@H]1C [B036, Propyl (R)-4-(4-chloro-2-(4-methoxyphenyl)-3-methylquinoline-7-carbonyl)-2-methylpiperazine-1-carboxylate]
7 | 1800 | CCCOC(=O)N1CCN(C(=O)c2ccc3c(Cl)c(C)c(-c4ccc(C#N)cc4)nc3c2)CC1 [B037, Propyl 4-(4-chloro-2-(4-cyanophenyl)-3-methylquinoline-7-carbonyl)piperazine-1-carboxylate]
8 | 99 | CCCOC(=O)N1CCN(C(=O)c2ccc3c(Cl)c(C)c(-c4cccc(CN)c4)nc3c2)CC1 [B038, Propyl 4-(2-(3-(aminomethyl)phenyl)-4-chloro-3-methylquinoline-7-carbonyl)piperazine-1-carboxylate]
9 | 91 | CCCOC(=O)N1CCN(C(=O)c2ccc3c(Cl)cc(-c4cccc(CN)c4)nc3c2)CC1 [B039, Propyl 4-(2-(3-(aminomethyl)phenyl)-4-chloroquinoline-7-carbonyl)piperazine-1-carboxylate]
10 | 3200 | CCCOC(=O)N1CCN(C(=O)c2ccc3c(Cl)cc(Nc4ccccc4)nc3c2)CC1 [B040, Propyl 4-(4-chloro-2-(phenylamino)quinoline-7-carbonyl)piperazine-1-carboxylate]
11 | 1200 | CCCOC(=O)N1CCN(C(=O)c2ccc3c(Cl)cc(Nc4ccc(OC)cc4)nc3c2)CC1 [B041, Propyl 4-(4-chloro-2-((4-methoxyphenyl)amino)quinoline-7-carbonyl)piperazine-1-carboxylate]
12 | 3100 | CCCOC(=O)N1CCN(C(=O)c2ccc3c(Cl)cc(Nc4cccnc4)nc3c2)CC1 [B042, Propyl 4-(4-chloro-2-(pyridin-3-ylamino)quinoline-7-carbonyl)piperazine-1-carboxylate]
13 | 2400 | CCCOC(=O)N1CCN(C(=O)c2ccc3c(Cl)c(C)c(-c4cccc([N+](=O)[O-])c4)nc3c2)CC1 [B043, Propyl 4-(4-chloro-3-methyl-2-(3-nitrophenyl)quinoline-7-carbonyl)piperazine-1-carboxylate]
14 | 45 | CCCOC(=O)N1CCN(C(=O)c2ccc3c(Cl)c(C)c(-c4cccc(N)c4)nc3c2)CC1 [B044, Propyl 4-(2-(3-aminophenyl)-4-chloro-3-methylquinoline-7-carbonyl)piperazine-1-carboxylate]
15 | 440 | CCCOC(=O)N1CCN(C(=O)c2ccc3c(Cl)cc(-c4ccc(OC)cc4)nc3c2)C[C@H]1C [B045, Propyl (R)-4-(4-chloro-2-(4-methoxyphenyl)quinoline-7-carbonyl)-2-methylpiperazine-1-carboxylate]
16 | 260 | CCCOC(=O)N1CCN(C(=O)c2ccc3c(Cl)cc(-c4ccc(OC)cc4)nc3c2)CC1 [B046, Propyl 4-(4-chloro-2-(4-methoxyphenyl)quinoline-7-carbonyl)piperazine-1-carboxylate]
17 | 230 | CCCOC(=O)N1CCN(C(=O)c2ccc3c(Cl)cc(-c4ccc(OC)cc4)nc3c2)[C@@H](C)C1 [B047, Propyl (S)-4-(4-chloro-2-(4-methoxyphenyl)quinoline-7-carbonyl)-3-methylpiperazine-1-carboxylate]
18 | 3000 | CCCOC(=O)N1CCN(C(=O)c2ccc3c(Cl)cc(-c4cc(F)cc(F)c4)nc3c2)CC1 [B048, Propyl 4-(4-chloro-2-(3,5-difluorophenyl)quinoline-7-carbonyl)piperazine-1-carboxylate]

Row | IC50 [nM] | Structure (SMILES)
19 | 1000 | CCCOC(=O)N1CCN(C(=O)c2ccc3c(Cl)cc(-c4cccc(F)c4)nc3c2)CC1 [B049, Propyl 4-(4-chloro-2-(3-fluorophenyl)quinoline-7-carbonyl)piperazine-1-carboxylate]
20 | 790 | CCCOC(=O)N1CCN(C(=O)c2ccc3c(Cl)cc(-c4ccc(N5CCCC5)cc4)nc3c2)CC1 [B050, Propyl 4-(4-chloro-2-(4-(pyrrolidin-1-yl)phenyl)quinoline-7-carbonyl)piperazine-1-carboxylate]
21 | 3200 | CCCOC(=O)N1CCN(C(=O)c2ccc3c(Cl)ccnc3c2)CC1 [B051, Propyl 4-(4-chloroquinoline-7-carbonyl)piperazine-1-carboxylate]
22 | 770 | CCCOC(=O)N1CCN(C(=O)c2ccc3c(Cl)cc(-c4ccc(C)cc4)nc3c2)C[C@H]1C [B052, Propyl (R)-4-(4-chloro-2-(p-tolyl)quinoline-7-carbonyl)-2-methylpiperazine-1-carboxylate]
23 | 180 | CCCOC(=O)N1CCN(C(=O)c2ccc3c(Cl)cc(-c4cccc(C(N)=O)c4)nc3c2)C[C@H]1C [B053, Propyl (R)-4-(2-(3-carbamoylphenyl)-4-chloroquinoline-7-carbonyl)-2-methylpiperazine-1-carboxylate]
24 | 100 | CCCOC(=O)N1CCN(C(=O)c2ccc3c(Cl)cc(-c4cccc(CN)c4)nc3c2)C[C@H]1C [B054, Propyl (R)-4-(2-(3-(aminomethyl)phenyl)-4-chloroquinoline-7-carbonyl)-2-methylpiperazine-1-carboxylate]
25 | 350 | CCCOC(=O)N1CCN(C(=O)c2ccc3c(Cl)cc(-c4ccc(N(C)C)cc4)nc3c2)CC1 [B055, Propyl 4-(4-chloro-2-(4-(dimethylamino)phenyl)quinoline-7-carbonyl)piperazine-1-carboxylate]
26 | 120 | CCCOC(=O)N1CCN(C(=O)c2ccc3c(Cl)c(C)c(-c4cccc(N)c4)nc3c2)C[C@H]1C [B056, Propyl (R)-4-(2-(3-aminophenyl)-4-chloro-3-methylquinoline-7-carbonyl)-2-methylpiperazine-1-carboxylate]
27 | 930 | C#Cc1ccc(-c2cc(Cl)c3ccc(C(=O)N4CCN(C(=O)OCCC)CC4)cc3n2)cc1 [B057, Propyl 4-(4-chloro-2-(4-ethynylphenyl)quinoline-7-carbonyl)piperazine-1-carboxylate]
28 | 1470 | CCCOC(=O)N1CCN(C(=O)c2ccc3c(Cl)cc(-c4cccc(N(C)C)c4)nc3c2)CC1 [B058, Propyl 4-(4-chloro-2-(3-(dimethylamino)phenyl)quinoline-7-carbonyl)piperazine-1-carboxylate]
29 | 1000 | C#Cc1ccc(-c2cc(Cl)c3ccc(C(=O)N4CCN(C(=O)OCCC)[C@H](C)C4)cc3n2)cc1 [B059, Propyl (R)-4-(4-chloro-2-(4-ethynylphenyl)quinoline-7-carbonyl)-2-methylpiperazine-1-carboxylate]
30 | 420 | CCCOC(=O)N1CCN(C(=O)c2ccc3c(Cl)cc(-c4ccc(N(C)C)cc4)nc3c2)C[C@H]1C [B060, Propyl (R)-4-(4-chloro-2-(4-(dimethylamino)phenyl)quinoline-7-carbonyl)-2-methylpiperazine-1-carboxylate]
31 | 870 | CCCOC(=O)N1CCN(C(=O)c2ccc3c(Cl)cc(-c4cccc(N(C)C)c4)nc3c2)C[C@H]1C [B061, Propyl (R)-4-(4-chloro-2-(3-(dimethylamino)phenyl)quinoline-7-carbonyl)-2-methylpiperazine-1-carboxylate]
32 | 340 | CCCOC(=O)N1CCN(C(=O)c2ccc3c(Cl)cc(-c4ccc(C#N)cc4)nc3c2)C[C@H]1C [B062, Propyl (R)-4-(4-chloro-2-(4-cyanophenyl)quinoline-7-carbonyl)-2-methylpiperazine-1-carboxylate]
33 | 80 | CCCOC(=O)N1CCN(C(=O)c2ccc3c(Cl)cc(-c4ccc(C(N)=O)cc4)nc3c2)C[C@H]1C [B063, Propyl (R)-4-(2-(4-carbamoylphenyl)-4-chloroquinoline-7-carbonyl)-2-methylpiperazine-1-carboxylate]
34 | 57 | CCCOC(=O)N1CCN(C(=O)c2ccc3c(Cl)cc(-c4ccc(CN)cc4)nc3c2)C[C@H]1C [B064, Propyl (R)-4-(2-(4-(aminomethyl)phenyl)-4-chloroquinoline-7-carbonyl)-2-methylpiperazine-1-carboxylate]
35 | 560 | CCCOC(=O)N1CCN(C(=O)c2ccc3c(Cl)cc(-c4ccc(F)cc4)nc3c2)CC1 [B065, Propyl 4-(4-chloro-2-(4-fluorophenyl)quinoline-7-carbonyl)piperazine-1-carboxylate]
